Data on three compounds can be found in BindingDB's records for doi:10.1007/pl00005326 (Schering-Plough Research Institute, 1999).

By Ki is commonly meant the dissociation constant of the complex between target and ligand, obtained from inhibition or displacement. A higher Ki goes with weaker binding.

The target of the test is T1, Adenosine receptor A3 (Homo sapiens, UniProt P0DMS8).
T1 sequence (P0DMS8 whole entry): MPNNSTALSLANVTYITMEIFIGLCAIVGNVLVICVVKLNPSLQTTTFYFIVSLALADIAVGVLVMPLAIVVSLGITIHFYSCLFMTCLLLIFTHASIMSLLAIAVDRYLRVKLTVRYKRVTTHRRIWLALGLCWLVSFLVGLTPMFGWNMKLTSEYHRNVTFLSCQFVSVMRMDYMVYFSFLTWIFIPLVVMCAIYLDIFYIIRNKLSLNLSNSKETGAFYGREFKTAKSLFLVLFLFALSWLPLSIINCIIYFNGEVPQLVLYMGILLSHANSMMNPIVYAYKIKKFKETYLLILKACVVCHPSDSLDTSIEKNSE
In turn, `Nc1nc2ccc(Cl)cc2c2nc(-c3ccco3)nn12` registered a Ki of 0.095 µM.
In the case of `Nc1nc(NCCc2ccc(O)cc2)nc2nc(-c3ccco3)nn12` it was > 10 µM; in that of `Nc1nc2c(cnn2CCc2ccccc2)c2nc(-c3ccco3)nn12`, > 10 µM.
